The nature of the data set: in vitro. Particulars: human, hela cells, % viability.

In the case of `CC(C)(C)OC(=O)N1CCCC(NC(CO)c2ccco2)CC1` (stereo not drawn) [CBK304049], the viability at 28.5 h, 10 µM stood at 101%.

For the compound `N#CCCN(Cc1ccco1)C(=O)c1ccc(OCC2CC2)cc1` [CBK304051], the viability at 28.5 h, 10 µM was found to be 85%.

Take `Cc1nc(CN(C)C2CCN(Cc3ccc4c(c3)CCC4)C2)no1` (stereo not drawn) [CBK304052]: the viability at 28.5 h, 10 µM stood at 76.5%.

Turning to `Cc1c(C(C)NCC2CCN(C)CC2)cnn1-c1ccc(C#N)cc1` (stereo not drawn) [CBK304058], the viability at 28.5 h, 10 µM was determined as 97.3%.

Regarding `O=C(Cn1cnc(NCc2cscn2)n1)N1CCCCCC1` [CBK304061], the viability at 28.5 h, 10 µM amounted to 98%.

Regarding `Cc1c(C(C)NCCc2nnc[nH]2)cnn1-c1ccc(C#N)cc1` (stereo not drawn) [CBK304063], the viability at 28.5 h, 10 µM was determined as 98.1%.

With `CCc1nc2ccccc2n1CC(=O)N(Cc1cccnc1)C1CC1` [CBK304064], the viability at 28.5 h, 10 µM came out at 107%.

`CC(Oc1ccc(C#N)cc1)C(=O)NCC(C)(C)N1CCOCC1` (stereo not drawn) [CBK304066]: the viability at 28.5 h, 10 µM was 90%.

Turning to `Cc1nc(CN2CCCC(NCc3cccc4ccccc34)C2)no1` (stereo not drawn) [CBK304068], the viability at 28.5 h, 10 µM is 71.4%.

`Cc1nnc(N2CCN(Cc3sccc3Cl)CC2)nc1C` [CBK304075]: the viability at 28.5 h, 10 µM is 93.7%.

Turning to `Cc1ccc(C#N)c(NCc2ccccc2CN2CCCC2CO)n1` (stereo not drawn) [CBK304076], the viability at 28.5 h, 10 µM was 75.5%.

Turning to `N#Cc1ccc(NCc2ccccc2CN2CCCC2CO)cn1` (stereo not drawn) [CBK304077], the viability at 28.5 h, 10 µM was determined as 97.9%.

`Cc1nnc(CN2CCOc3ccc(Br)cc3C2)o1` [CBK304079]: the viability at 28.5 h, 10 µM was 99%.

With `CCOC(=O)c1csc(C2CCCN2C(=O)c2ccoc2C)n1` (stereo not drawn) [CBK304080], the viability at 28.5 h, 10 µM was 109%.

Consider `Cc1nc(CCNC(=O)c2cc(C(C)C)n(C(C)(C)C)n2)cs1` [CBK304082], for which the viability at 28.5 h, 10 µM is 89.2%.

For the compound `CNC(=O)c1ccc(CN(Cc2noc(C(C)C)n2)C2CC2)cc1` [CBK304084], the viability at 28.5 h, 10 µM stood at 83%.

Regarding `Cn1cc(C2C[S+]([O-])CCN2Cc2csc3ccccc23)cn1` (stereo not drawn) [CBK304085], the viability at 28.5 h, 10 µM came out at 103%.

On to `CNS(=O)(=O)c1cccc(C(C)NC(=O)N2CCC(COC)CC2)c1` (stereo not drawn) [CBK304087], for which the viability at 28.5 h, 10 µM was 90.4%.

With `CC(C)c1ccc(C(=O)NC2CCN(CC(F)(F)F)C2=O)nc1` (stereo not drawn) [CBK304089], the viability at 28.5 h, 10 µM turned out to be 108%.

On to `COCCN(C(=O)c1nc2cccnc2s1)C1CCS(=O)(=O)C1` (stereo not drawn) [CBK304091], for which the viability at 28.5 h, 10 µM was 97%.

Take `COCCc1noc(CC2CCN(c3ccc(C#N)nc3)CC2)n1` [CBK304094]: the viability at 28.5 h, 10 µM amounted to 89.9%.

Consider `Cc1csc2c(N3CCC(OCCN4CCCC4)CC3)ncnc12` [CBK304095], for which the viability at 28.5 h, 10 µM turned out to be 84%.

With `CCN(CC1CCN(c2ccccn2)CC1)C(=O)C1(C#N)CCCC1` [CBK304096], the viability at 28.5 h, 10 µM came to 98.7%.

As to `CCOC(=O)C(NC(=O)c1cn(C)cn1)c1cccc(C)c1C` (stereo not drawn) [CBK304098], the viability at 28.5 h, 10 µM was 107%.

On to `CCOC(=O)C1CCCN(C(=O)Cn2ccc3sccc3c2=O)C1` (stereo not drawn) [CBK304099], for which the viability at 28.5 h, 10 µM came to 100%.

As to `Cc1cccc(OCC(C)NC(=O)N2CCCC2c2cnn(C)c2)c1` (stereo not drawn) [CBK304100], the viability at 28.5 h, 10 µM was 91.6%.

Regarding `Cc1ccc(CS(=O)(=O)N(CCO)C2CCC2)c(F)c1` [CBK304101], the viability at 28.5 h, 10 µM is 82.2%.

In the case of `Cc1nnc(CS(=O)(=O)Cc2csc(C(C)C)n2)n1C1CC1` [CBK304106], the viability at 28.5 h, 10 µM is 101%.

Take `CC(C)(C)n1cc(C(=O)N2CCNCC2c2cccc(Cl)c2)cn1` (stereo not drawn) [CBK304112]: the viability at 28.5 h, 10 µM turned out to be 96.9%.

For the compound `Cc1cc(C)n(CC(=O)N2CCNCC2c2cccc(Cl)c2)n1` (stereo not drawn) [CBK304116], the viability at 28.5 h, 10 µM was 92.7%.

For the compound `CCc1n[nH]c(C2CN(Cc3nc4c(F)cccc4[nH]3)CCO2)n1` (stereo not drawn) [CBK304117], the viability at 28.5 h, 10 µM turned out to be 90.9%.

In the case of `O=C(c1cnc(-c2ccncc2)s1)N(CC(F)(F)F)C1CCC1` [CBK304119], the viability at 28.5 h, 10 µM was found to be 84.1%.

As to `Cc1ncccc1-c1csc(C2CCCO2)n1` (stereo not drawn) [CBK304121], the viability at 28.5 h, 10 µM stood at 117%.

Consider `CC1CNCCN1C(=O)c1ccnc(N2CCN(C)CC2)c1` (stereo not drawn) [CBK304122], for which the viability at 28.5 h, 10 µM turned out to be 88.6%.

For the compound `CCOC(=O)c1csc(C2CCCN2C(=O)c2ccsc2)n1` (stereo not drawn) [CBK304125], the viability at 28.5 h, 10 µM was determined as 77.5%.

On to `Cc1cnc(NC(=O)N2CCOC(c3ccc(F)cc3F)C2)s1` (stereo not drawn) [CBK304126], for which the viability at 28.5 h, 10 µM turned out to be 88.5%.

`CC(C(=O)N(CCC#N)Cc1cccnc1)n1cnc2ccccc21` (stereo not drawn) [CBK304127]: the viability at 28.5 h, 10 µM amounted to 92.5%.

For `CC(C)c1nc(C2CCCN(c3ncc(C#N)cc3Cl)C2)no1` (stereo not drawn) [CBK304128], the viability at 28.5 h, 10 µM was found to be 111%.

On to `CCn1cc(C2CN(S(=O)(=O)Cc3ccccc3)CCO2)cn1` (stereo not drawn) [CBK304129], for which the viability at 28.5 h, 10 µM amounted to 106%.

`CCOC(=O)C(NC(=O)c1cc[nH]n1)c1cccc(C)c1C` (stereo not drawn) [CBK304131]: the viability at 28.5 h, 10 µM was found to be 85.5%.

Turning to `CCc1nnc(CN(C)Cc2c(C)nn(C)c2Cl)o1` [CBK304132], the viability at 28.5 h, 10 µM stood at 90.5%.

In the case of `Cc1nc(C)n(CC2CCCN(Cc3cc(=O)n4ccccc4n3)C2)n1` (stereo not drawn) [CBK304135], the viability at 28.5 h, 10 µM worked out at 88.5%.

`Cc1ccc(Cc2cnc(NC(=O)NC3CCOC(C)(C)C3)s2)cc1F` (stereo not drawn) [CBK304139]: the viability at 28.5 h, 10 µM worked out at 92.2%.

With `Cc1csc(CCNCc2c(C(C)C)nn(C)c2N(C)C)n1` [CBK304140], the viability at 28.5 h, 10 µM came out at 89%.

On to `CCOc1cc(NC2CCN(C(=O)CC3(O)CCCCC3)CC2)ncn1` [CBK304141], for which the viability at 28.5 h, 10 µM was determined as 81.6%.

Regarding `CCCC1CCCN(Cc2nnnn2-c2ccc(S(C)(=O)=O)cc2)C1` (stereo not drawn) [CBK304142], the viability at 28.5 h, 10 µM was 89.2%.

With `NC(=O)c1ccc(C(=O)NCC2CN3CCCN2CC3)cc1` (stereo not drawn) [CBK304143], the viability at 28.5 h, 10 µM came to 114%.

On to `CCc1ccc(C(O)CNC2CCN(CC(F)F)CC2)cc1` (stereo not drawn) [CBK304144], for which the viability at 28.5 h, 10 µM was found to be 109%.

`c1ccc(C(Nc2cnccn2)C2CC2)cc1` (stereo not drawn) [CBK304145]: the viability at 28.5 h, 10 µM turned out to be 106%.

Turning to `Cc1nnc(CN(CC2CCCO2)C2CCCC2)n1C1CC1` (stereo not drawn) [CBK304147], the viability at 28.5 h, 10 µM turned out to be 95.5%.

In the case of `CCOC(=O)CN1CCCN(c2c(F)cc(C#N)cc2F)CC1` [CBK304148], the viability at 28.5 h, 10 µM turned out to be 86.9%.

Turning to `CCCc1occc1C(=O)N1CCOCC1C(=O)O` (stereo not drawn) [CBK304151], the viability at 28.5 h, 10 µM was found to be 97.9%.

Turning to `CC(Cc1nc(-c2ccnn2C)cs1)n1cc(Cl)cn1` (stereo not drawn) [CBK304152], the viability at 28.5 h, 10 µM was 96.6%.

On to `COCCc1noc(CC2CCN(c3ncc(C#N)cc3F)CC2)n1` [CBK304153], for which the viability at 28.5 h, 10 µM came to 115%.

Regarding `CN(Cc1nncn1C)C(=O)c1cnc2c(c1)c(C(C)(C)C)nn2C` [CBK304154], the viability at 28.5 h, 10 µM is 85.4%.

For `Cn1cc(CNCC2CCN(c3ccccc3)C2)c(-c2cccnc2)n1` (stereo not drawn) [CBK304155], the viability at 28.5 h, 10 µM amounted to 95.7%.

On to `CCC(=O)N(C)C(CO)c1cc(OC)ccc1Br` (stereo not drawn) [CBK304156], for which the viability at 28.5 h, 10 µM worked out at 95.9%.

Turning to `CC(=O)Nc1ccc(NCc2csc(C3CCCO3)n2)c(C(F)(F)F)c1` (stereo not drawn) [CBK304161], the viability at 28.5 h, 10 µM was found to be 101%.

As to `COc1ccc(C)cc1C1(CNC(=O)C2CC(O)CN2)CCOCC1` (stereo not drawn) [CBK304162], the viability at 28.5 h, 10 µM stood at 92%.

For the compound `Cc1ccccc1NC(=O)Cc1nc(CN2CCC3(CCOC3)C2)cs1` (stereo not drawn) [CBK304164], the viability at 28.5 h, 10 µM turned out to be 95.5%.

Values taken from paper PMC12040169 (PLOS Biology, 2025).
